Source: patent US20160354312A1, “FORMULATIONS OF JASMONATES AND NANOCARRIERS OR MICROCARRIERS” (Nanocare Technologies, Inc., priority 2008, published 2016)

Assay: GC/MS analysis of incorporation of methyl jasmonate in nanocarriers
Assay type: physicochemical
Description: The class of dendrimers used was PAMAM. […] The experimental data was obtained using a GC with a column temperature of 50° C., the injection temperature of 250° C., Flow control mode linear, total flow 50.0 mL/min., and column flow of 1.70 mL/min. The percentage relative to the incorporation of methyl jasmonate inside β-CD was 98-99% and for dendrimer PAMAM it was more than 95%. Comparing peak 1 with 2, peak 2 is methyl Jasmonate alone and peak 1 is the inclusion compounds formed. In both cases peak 1 is clearly different and proves the molecular association.

In the case of `CC/C=C\CC1C(=O)CCC1CC(=O)OC` (centres unmarked) [methyl jasmonate], the “percentage relative to the incorporation of methyl jasmonate” value (dendrimer PAMAM) is reported as “more than 95%” and the “percentage relative to the incorporation of methyl jasmonate” value (inside β-CD) is reported as 98-99%.
